Experimental findings from patent US7179806B2, “Δ1-pyrrolines used as pesticides” (Bayer Cropscience AG, priority 2000, dated 2007) are described below.

One series has as its system larvae of the mustard beetle (Phaedon cochleariae). As to the kind of experiment: Phaedon larvae test (cabbage leaves dipped). It is filed as in vivo. The following applies: active compound concentration 1000 ppm. Here is the method:
(§1) Phaedon Larvae Test To produce a suitable preparation of active compound, 1 part by weight of active compound is mixed with the stated amounts of solvent and emulsifier, and the concentrate is diluted with emulsifier-containing water to the desired concentration. Cabbage leaves (Brassica oleracea) are treated by being dipped into the preparation of active compound of the desired concentration and are populated with larvae of the mustard beetle (Phaedon cochleariae) whilst the leaves are still moist. After the desired period of time, the kill in % is determined. 100% means that all beetle larvae have been killed; 0% means that none of the beetle larvae have been killed.
Consider `CC(C)Oc1ncc(-c2ccc(C3CCC(c4c(F)cccc4F)=N3)cc2)cn1` (stereo not drawn) [drawing 270], for which the “Kill rate in % after 7 d” value amounted to 100%.
For the compound `Fc1cccc(F)c1C1=NC(c2ccc(-c3ccc(C(F)(F)F)cn3)cc2)CC1` (stereo not drawn) [drawing 271], the “Kill rate in % after 7 d” value is 100%.
Same read-out and setting: in the case of `CC(C)Sc1ncc(-c2ccc(C3CCC(c4c(F)cccc4F)=N3)cc2)cn1` (stereo not drawn) [drawing 272] it was 100%.
`Fc1cccc(F)c1C1=NC(c2ccc(-c3ccc(OCC(F)(F)F)nc3)cc2)CC1` (stereo not drawn) [drawing 273]: the “Kill rate in % after 7 d” value worked out at 100%.
The same measure, in the same setting: in the case of `CCCN(CC)c1ncc(-c2ccc(C3CCC(c4c(F)cccc4F)=N3)cc2)cn1` (stereo not drawn) [drawing 274] it was 100%.
The same measure, in the same setting: the same measure for `CC1CC(C)CN(c2ncc(-c3ccc(C4CCC(c5c(F)cccc5F)=N4)cc3)cn2)C1` (stereo not drawn) [drawing 275]: 100%; for `Fc1cccc(F)c1C1=NC(c2ccc(-c3cnc(N4CCCCC4)nc3)cc2)CC1` (stereo not drawn) [drawing 276]: 100%.

System in the next series: not listed separately
As to the kind of experiment: log P determination by HPLC (reversed-phase C18, EEC Directive 79/831 Annex V.A8). The following applies: reversed-phase C18 HPLC column, pH 2.3, pH 2.3, 0.1% aqueous phosphoric acid/acetonitrile gradient, 43° C. Type of series: physicochemical. The text has this: Mobile phases for determination in the acidic range: 0.1% aqueous phosphoric acid, acetonitrile; linear gradient from 10% acetonitrile to 90% acetonitrile.
As to `COC(CN(C)c1ncc(-c2ccc(C3CCC(c4c(F)cccc4F)=N3)cc2)cn1)OC` (stereo not drawn) [Example 206], the chromatographic logP (usually a lipophilicity value derived from retention on a column) amounted to 2.32.
`CCOC(CN(C)c1ncc(-c2ccc(C3CCC(c4c(F)cccc4F)=N3)cc2)cn1)OCC` (stereo not drawn) [Example 207] displayed a chromatographic logP of 3.09.
Still for that read-out and setting: in the case of `CN(Cc1ccc(Cl)nc1)c1ncc(-c2ccc(C3CCC(c4c(F)cccc4F)=N3)cc2)cn1` (stereo not drawn) [Example 208] it was 2.89.
`CCN(Cc1ccc(Cl)nc1)c1ncc(-c2ccc(C3CCC(c4c(F)cccc4F)=N3)cc2)cn1` (stereo not drawn) [Example 209]: the chromatographic logP amounted to 3.6.
For `O/N=C/c1ccc(-c2ccc(C3CCC(c4c(F)cccc4F)=N3)cc2)nc1` (stereo not drawn) [Example 210], the chromatographic logP came to 1.58.
`CC(=O)c1ccc(-c2ccc(C3CCC(c4c(F)cccc4F)=N3)cc2)nc1` (stereo not drawn) [Example 211]: the chromatographic logP was 2.
Same read-out and setting: in the case of `CN(c1ncc(-c2ccc(C3CCC(c4c(F)cccc4F)=N3)cc2)cn1)C1CCCCC1` (stereo not drawn) [Example 212] it was 4.11.
Compound `CC(C#N)c1ccc(-c2ccc(C3CCC(c4c(F)cccc4F)=N3)cc2)nc1` (stereo not drawn) [Example 213] came in with a chromatographic logP of 1.98.
The same measure, in the same setting: the same measure for `O=C1CCN(c2ncc(-c3ccc(C4CCC(c5c(F)cccc5F)=N4)cc3)cn2)CC1` (stereo not drawn) [Example 214]: 2; for `CON=C1CCN(c2ncc(-c3ccc(C4CCC(c5c(F)cccc5F)=N4)cc3)cn2)CC1` (stereo not drawn) [Example 215]: 2.65; for `CCON=C1CCN(c2ncc(-c3ccc(C4CCC(c5c(F)cccc5F)=N4)cc3)cn2)CC1` (stereo not drawn) [Example 216]: 3.1.
In turn, `CC(C)ON=C1CCN(c2ncc(-c3ccc(C4CCC(c5c(F)cccc5F)=N4)cc3)cn2)CC1` (stereo not drawn) [Example 217] yielded a chromatographic logP of 3.83.
The same measure, in the same setting: in the case of `Fc1cccc(F)c1C1=NC(c2ccc(-c3ncc(Cl)cn3)cc2)CC1` (stereo not drawn) [Example 218] it was 2.87; in that of `Cc1nc(-c2ccc(C3CCC(c4c(F)cccc4F)=N3)cc2)nc(C)c1Cl` (stereo not drawn) [Example 219], 3.9; in that of `CCOC(=O)c1cncc(-c2ccc(C3CCC(c4c(F)cccc4F)=N3)cc2)c1` (stereo not drawn) [Example 220], 2.42.
Still for that read-out and setting: the same measure for `O=Cc1ccc(-c2ccc(C3CCC(c4c(F)cccc4F)=N3)cc2)nc1` (stereo not drawn) [Example 221]: 1.95; for `Brc1ccc(N2CCOCC2)nc1` [III-1, 4-(5-bromo-2-pyridinyl)morpholine]: 1.63; for `FC(F)(F)COc1ccc(Br)cn1` [III-2, 5-bromo-2-(2,2,2-trifluoroethoxy)pyridine]: 3.48.
Still for that read-out and setting: in the case of `CCCN(CC)c1ncc(Br)cn1` [III-3, N-(5-bromo-2-pyrimidinyl)-N-ethyl-N-propylamine] it was 4.38; in that of `Brc1cnc(N2CCOCC2)nc1` [III-5, 4-(5-bromo-2-pyrimidinyl)morpholine], 2.15; in that of `CC(C)(C)C(=O)N1CCN(c2ncc(Br)cn2)CC1` [III-6, 1-(tert-butylcarbonyl)-4-(5-bromo-2-pyrimidinyl)piperazine], 2.86.
For the compound `CC(C)Oc1ncc(Br)cn1` [III-7, 5-bromo-2-pyrimidinyl isopropyl ether], the chromatographic logP is 2.39.
Same read-out and setting: the same measure for `CC(C)Sc1ncc(Br)cn1` [III-8, 5-bromo-2-pyrimidinyl isopropyl sulphide]: 3.34; for `CCN(CC)c1ccc(Cl)nn1` [III-10, N-(6-chloro-3-pyridazinyl)-N,N-diethylamine]: 0.51; for `CCCN(CCC)c1ccc(Cl)nn1` [III-12, N-(6-chloro-3-pyridazinyl)-N,N-dipropylamine]: 1.82.
The compound `O=C(OCc1ccccc1)N1CCN(c2ccc(Cl)nn2)CC1` [III-13, benzyl 4-(6-chloro-3-pyridazinyl)-1-piperazinecarboxylate] yielded a chromatographic logP of 2.36.
The same measure, in the same setting: the same measure for `O=C1CCCN1c1ccc(Cl)nn1` [III-14, 1-(6-chloro-3-pyridazinyl)-2-pyrrolidinone]: 1.09.
The same measure, in the same setting: the same measure for `Clc1ccc(NC2CCCCC2)nn1` [III-15, N-(6-chloro-3-pyridazinyl)-N-cyclohexylamine]: 0.95.
Same read-out and setting: the same measure for `CN(C(=O)C(C)(C)C)c1ccc(Cl)nn1` [III-17, N-(6-chloro-3-pyridazinyl)-N-methyl-N-2,2-trimethylpropanamide]: 1.69; for `CC(C)Oc1ccc(Cl)nn1` [III-18, 3-chloro-6-isopropoxypyridazine]: 1.94.
Consider `FC(F)(F)COc1ccc(Cl)nn1` [III-19, 3-chloro-6-(2,2,2-trifluoroethoxy)pyridazine], for which the chromatographic logP amounted to 2.05.
Compound `CC(C)Sc1ccc(Cl)nn1` [III-20, 6-chloro-3-pyridazinyl isopropyl sulphide] came in with a chromatographic logP of 2.34.
On the same count and under the same terms, in the case of `CC(C)S(=O)(=O)c1ccc(Cl)nn1` [III-21, 6-chloro-3-pyridazinyl isopropyl sulphone] it was 1.2.
Turning to `O=S(=O)(Nc1ccc(Cl)nn1)C(F)(F)F` [III-22, N-(6-chloro-3-pyridazinyl)(trifluoro)methane-sulphonamide], the chromatographic logP is 1.56.
`CN(c1ccc(Cl)nn1)S(=O)(=O)C(F)(F)F` [III-23, N-(6-chloro-3-pyridazinyl)(trifluoro)-N-methyl-methanesulphonamide] gave a chromatographic logP of 2.18.

The test system of the next series is army worm (Spodoptera frugiperda) caterpillars. As to the kind of experiment: Spodoptera frugiperda test (cabbage leaves dipped). To be noted: 168 h, active compound concentration 500 ppm, after 7 d, read-out: Kill rate in % after 7 d. Type of series: in vivo. Here is the method: as §1, with “Spodoptera frugiperda” for “Phaedon Larvae”, “army worm (Spodoptera frugiperda) caterpillars” for “larvae of the mustard beetle (Phaedon cochleariae)”, “caterpillars” for “beetle larvae”
`O=C1CCCN1c1ccc(-c2ccc(C3CCC(c4c(F)cccc4F)=N3)cc2)nn1` (stereo not drawn) [drawing 285]: the pest or weed control at 500 ppm was found to be 100%.
As to `CN(c1ccc(-c2ccc(C3CCC(c4c(F)cccc4F)=N3)cc2)nn1)S(=O)(=O)C(F)(F)F` (stereo not drawn) [drawing 286], the pest or weed control at 500 ppm was determined as 100%.
Turning to `CCCCN(CCCC)c1ccc(-c2ccc(C3CCC(c4c(F)cccc4F)=N3)cc2)nn1` (stereo not drawn) [drawing 287], the pest or weed control at 500 ppm is 100%.

The series is the same for the next values; noted with them: 168 h, active compound concentration 1000 ppm, after 7 d, read-out: Kill rate in % after 7 d.
As to `CCCCCCN(CCCCCC)c1ccc(-c2ccc(C3CCC(c4c(F)cccc4F)=N3)cc2)nn1` (stereo not drawn), the pest or weed control at 1000 ppm was determined as 100%.
Turning to `Fc1cccc(F)c1C1=NC(c2ccc(-c3ccc(Cl)cn3)cc2)CC1` (stereo not drawn) [drawing 280], the pest or weed control at 1000 ppm is 100%.
Still for that read-out and setting: in the case of `CN(C)c1ncc(-c2ccc(C3CCC(c4c(F)cccc4F)=N3)cc2)cn1` (stereo not drawn) [drawing 281] it was 100%; in that of `CC(C)Oc1ccc(-c2ccc(C3CCC(c4c(F)cccc4F)=N3)cc2)nn1` (stereo not drawn) [drawing 282], 100%; in that of `CC(C)Sc1ccc(-c2ccc(C3CCC(c4c(F)cccc4F)=N3)cc2)nn1` (stereo not drawn) [drawing 283], 100%.
The same measure, in the same setting: in the case of `Fc1cccc(F)c1C1=NC(c2ccc(-c3cnc(N4CCOCC4)nc3)cc2)CC1` (stereo not drawn) [drawing 284] it was 100%; in that of `CCCCCCC(=O)N(c1ccc(-c2ccc(C3CCC(c4c(F)cccc4F)=N3)cc2)nn1)C1CCCC1` (stereo not drawn) [drawing 289], 100%.
For `CCCCCCN(C(=O)C(C)(C)C)c1ccc(-c2ccc(C3CCC(c4c(F)cccc4F)=N3)cc2)nn1` (stereo not drawn) [drawing 290], the pest or weed control at 1000 ppm came out at 100%.
Still for that read-out and setting: in the case of `CC(C)COc1ncc(-c2ccc(C3CCC(c4c(F)cccc4F)=N3)cc2)cn1` (stereo not drawn) [drawing 291] it was 100%; in that of `CC1CC(C)CN(c2ncc(-c3ccc(C4CCC(c5c(F)cccc5F)=N4)cc3)cn2)C1` (stereo not drawn) [drawing 292], 100%.

The next series deals with greenhouse red spider mite (tetranychus urticae). As to the kind of experiment: Tetranychus test (OP-resistant/dip treatment). The following applies: active compound concentration 100 ppm, OP-resistant, dip treatment. Type of series: in vivo. On the procedure:
Tetranychus Test (OP Resistant/Dip Treatment)
To produce a suitable preparation of active compound, 1 part by weight of active compound is mixed with the stated amounts of solvent and emulsifier, and the concentrate is diluted with emulsifier-containing water to the desired concentration.
Bean plants (Phaseolus vulgaris) which are heavily infested by all stages of the greenhouse red spider mite (tetranychus urticae) are dipped into a preparation of active compound of the desired concentration.
After the desired period of time, the effect in % is determined. 100% means that all spider mites have been killed; 0% means that none of the spider mites have been killed.
As for `Fc1cccc(F)c1C1=NC(c2ccc(-c3cncnc3)cc2)CC1` (stereo not drawn) [drawing 293], the “Kill rate in % after 7 d” value was 98%.
Still for that read-out and setting: in the case of `Fc1cccc(F)c1C1=NC(c2ccc(-c3ccc(Cl)cn3)cc2)CC1` (stereo not drawn) [drawing 294] it was 98%.
